Assay results as given in patent US20080293048A1, “METHODS AND KITS BASED ON UGT1A7 PROMOTER POLYMORPHISM” (priority 2004, published 2008).

Experiments:
[1] = target: T1, UGT1A7 (Homo sapiens, UniProt Q9HAW7); settings: stated as known; cited from earlier work
T1 construct: expressed in transfected cells; host or cells: HEK293
T1 sequence (Q9HAW7 26-530): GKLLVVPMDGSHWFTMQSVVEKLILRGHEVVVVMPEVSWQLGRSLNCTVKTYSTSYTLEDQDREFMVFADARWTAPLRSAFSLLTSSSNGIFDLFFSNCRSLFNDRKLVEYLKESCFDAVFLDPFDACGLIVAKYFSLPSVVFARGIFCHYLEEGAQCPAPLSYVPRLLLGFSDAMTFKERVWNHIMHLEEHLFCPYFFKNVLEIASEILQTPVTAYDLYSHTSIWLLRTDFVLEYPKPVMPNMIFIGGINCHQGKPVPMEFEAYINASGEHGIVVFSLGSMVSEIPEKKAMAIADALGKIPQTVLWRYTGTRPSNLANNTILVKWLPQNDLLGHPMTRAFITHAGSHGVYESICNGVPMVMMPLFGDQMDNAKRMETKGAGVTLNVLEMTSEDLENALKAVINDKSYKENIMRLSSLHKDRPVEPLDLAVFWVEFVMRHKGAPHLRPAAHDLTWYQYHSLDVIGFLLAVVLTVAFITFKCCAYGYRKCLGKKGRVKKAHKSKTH

[2] = background statement; cited from earlier work
[3] = test system: patients with metastatic colorectal cancer; settings: human, in vivo
Description: The aim of this study was to assess adverse events, dose reductions and clinical outcome. In both treatment arms 80 mg/m^2 of CPT-11 were administered intravenously over 30 minutes on day 1, 8, 15, 22, 29 and 36 and the cycle repeated after day 50. In arm A of the FIRE study FA (500 mg/m^2, 120 min. infusion) and 5-FU (2000 mg/m^2, 24 h infusion) were co-administered on days 1, 8, 15, 22, 29, 36, and in arm B oxaliplatin (85 mg/m^2, 120 min infusion) were co-administered on day 1, 15 and 29. At the beginning of each treatment cycle adverse events and clinical symptoms were documented. Patients with known Gilbert's disease were excluded from this study. The following adverse events were analyzed: diarrhea within 24 h and later than 24 after administration of CPT-11, loss of body weight more than 5%, anemia, thrombocytopenia, and leukopenia. The intensity of adverse events was classified according to the WHO-Adverse Reaction Terminology with scores from “0”—“no adverse events” to 4—“life-threatening adverse events”. If the CPT-11 dose had to be reduced to less than 80%, dose reduction was documented at each cycle. Genomic DNA from full blood of all patients was isolated as described before and genotyped after written informed consent was obtained. The study was approved by the local ethics committees.
All genotyping studies were performed in a blinded fashion without prior knowledge of the clinical data of the analyzed patient. Approximately 10 ng of genomic DNA were used as a template in Taqman 5′-nuclease assays. Primers and probes specific for each SNP were designed with Primer Express Software (Applied Biosystems) and labelled with either 6-FAM or VIC as reporter dyes and MGB-NFQ (Applied Biosystems) as a quencher as described in Lankisch et al., Mol. Pharmacol, 2005, 67(5); 1732-1739. The Taqman assays were performed using 600 nM primer concentrations and 200 nM probe concentrations (Applied Biosystems) and qPCR Mastermix Plus (Eurogentec, Seraing, Belgium). The run consisted of a hot start at 95° C. for 10 minutes and 35 cycles of 94° C. for 15 sec. and 61° C. for 1 min. All assays were performed in 25 μl reactions in 96-well trays using an ABI 7000 instrument (Applied Biosystems). UGT1A1*28 was determined by Oncoscreen, Jena, Germany.
Patients were classified according to the number of SNPs determined at the UGT1A1*28, UGT1A7 −57 T/G and UGT1A7 N129K/R131K gene loci. In the absence of allelic variants patients were classified as “low risk”, whereas high risk patients were defined if at least one allele of the allelic variant of each analyzed gene locus was present. If only one or two allelic variants were detected at the UGT1A1 or UGT1A7 gene locus, patients were classified as “intermediate risk”. […] Frequency and intensity of the adverse events were compared between the risk groups defined above by Cochran-Mantel-Haenszel statistics using modified ridit scores. The risk groups were also compared by multivariant analysis (non-parametric Weil-Lachin procedure) for differences in intensity of 5 adverse events simultaneously. […] This test leads to values between 0 and 1 with 0.5 characterizing equal chances, which would indicate no difference in the comparison of these patients. The analysis of incidence and intensity of adverse events was based on the documented 297 treatment cycles involving all 105 patients. The Chi-Square test was used for statistical analysis of CPT-11 dose reductions. P-values were not adjusted for multiple testing. All statistical analyses were calculated by an independent statistician who was not involved in patient treatment or genotyping (Estimate GmbH, Augsburg, Germany).

SMILES	specific activity of UGT1A7 with SN-38 compared with UGT1A1 [1]	activity higher than irinotecan [2]	Leukopenia WHO Grade 1, % [3] [%]	Leukopenia WHO Grade 1, n treatment cycles [3]	Thrombocytopenia WHO Grade 2, % [3] [%]	Thrombocytopenia WHO Grade 2, n treatment cycles [3]	Thrombocytopenia WHO Grade 3, % [3] [%]	Thrombocytopenia WHO Grade 3, n treatment cycles [3]	diarrhea <24 h WHO Grade 3, % of treatment cycles [3]	diarrhea <24 h WHO Grade 3, N treatment cycles [3]	leukopenia WHO Grade 4, % of treatment cycles [3] [%]	leukopenia WHO Grade 4, N treatment cycles [3]	thrombocytopenia WHO Grade 2, % of treatment cycles [3] [%]	thrombocytopenia WHO Grade 2, N treatment cycles [3]	thrombocytopenia WHO Grade 3, % of treatment cycles [3]	thrombocytopenia WHO Grade 3, N treatment cycles [3]	overall incidence of adverse events, Mann Whitney test ([3]; 50 days)	Leukopenia WHO Grade 4, % ([3]; 50 days (one treatment cycle)) [%]	Leukopenia WHO Grade 4, n treatment cycles ([3]; 50 days (one treatment cycle))
CCc1c2c(nc3ccc(O)cc13)-c1cc3c(c(=O)n1C2)COC(=O)[C@]3(O)CC [SN-38, 7-ethyl-10-hydroxycamptothecin]	five-hold higher	100-1000 fold																	
CCc1c2c(nc3ccc(OC(=O)N4CCC(N5CCCCC5)CC4)cc13)-c1cc3c(c(=O)n1C2)COC(=O)[C@]3(O)CC [irinotecan]			21	10	3	5	1	1	1 (1%)	1 (1%)	1	2	3	5	1 (1%)	1 (1%)	0.5511	1	2
